Measured values as given in patent publication US20170073337A1, “DIHYDROTHIAZINE AND DIHYDROOXAZINE DERIVATIVES HAVING BACE1 INHIBITORY ACTIVITY” (Shionogi & Co., Ltd., priority 2014, published 2017).

Columns and labels:
[1] = target: T1, P-gp (MDR1 expressing LLC-PK1 cells) (Homo sapiens, UniProt P08183); assay: P-gp substrate test; assay type: in vitro ADME; conditions: net flux = Efflux Ratio in MDR1 expressing cells / Efflux Ratio in parent LLC-PK1 cells
T1 construct: host or cells: LLC-PK1
T1 sequence (P08183 whole entry): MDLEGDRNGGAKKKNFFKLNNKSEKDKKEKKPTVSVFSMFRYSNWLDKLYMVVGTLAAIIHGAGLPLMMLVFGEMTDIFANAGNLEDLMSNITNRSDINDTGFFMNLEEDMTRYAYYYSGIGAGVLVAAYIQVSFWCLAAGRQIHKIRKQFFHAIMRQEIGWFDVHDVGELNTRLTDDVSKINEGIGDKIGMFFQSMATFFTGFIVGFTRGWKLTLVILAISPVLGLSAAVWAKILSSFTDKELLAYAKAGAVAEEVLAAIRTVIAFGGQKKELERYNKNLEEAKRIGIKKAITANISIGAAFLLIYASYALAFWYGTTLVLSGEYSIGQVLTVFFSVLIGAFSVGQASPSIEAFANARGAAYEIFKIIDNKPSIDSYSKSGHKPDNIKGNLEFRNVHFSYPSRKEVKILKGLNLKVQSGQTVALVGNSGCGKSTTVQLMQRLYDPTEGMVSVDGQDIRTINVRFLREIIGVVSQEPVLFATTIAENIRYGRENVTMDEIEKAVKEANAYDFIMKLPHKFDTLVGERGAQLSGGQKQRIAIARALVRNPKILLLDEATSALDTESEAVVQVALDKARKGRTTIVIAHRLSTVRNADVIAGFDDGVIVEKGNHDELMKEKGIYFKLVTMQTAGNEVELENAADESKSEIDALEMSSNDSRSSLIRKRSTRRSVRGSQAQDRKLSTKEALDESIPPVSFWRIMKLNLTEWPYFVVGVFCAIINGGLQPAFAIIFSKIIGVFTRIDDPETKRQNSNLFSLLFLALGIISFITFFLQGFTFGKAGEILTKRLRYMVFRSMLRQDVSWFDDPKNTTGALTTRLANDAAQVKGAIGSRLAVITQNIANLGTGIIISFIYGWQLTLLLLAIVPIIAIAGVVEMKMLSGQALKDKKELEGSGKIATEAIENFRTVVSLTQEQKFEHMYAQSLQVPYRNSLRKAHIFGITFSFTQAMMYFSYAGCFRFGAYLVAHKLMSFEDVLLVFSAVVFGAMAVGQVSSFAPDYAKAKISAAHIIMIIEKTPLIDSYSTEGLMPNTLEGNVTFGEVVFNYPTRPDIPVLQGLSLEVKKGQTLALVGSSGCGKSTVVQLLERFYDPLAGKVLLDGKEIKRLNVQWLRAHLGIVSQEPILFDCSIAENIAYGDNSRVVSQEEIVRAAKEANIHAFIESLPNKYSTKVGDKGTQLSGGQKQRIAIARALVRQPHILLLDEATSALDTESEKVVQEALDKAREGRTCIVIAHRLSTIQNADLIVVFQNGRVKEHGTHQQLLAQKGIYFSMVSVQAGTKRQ
Experimental: • 1. Cell line: • a. MDR/LLC-PK1 (Becton Dickinson) • b. LLC-PK1 (Becton Dickinson) • 2. Reference substrates: • a Digoxin (2 μM)
1. […] After incubation for designed time at 37° C., an aliquot (50 μL) of transport buffer in the donor and receiver side were collected. Assay was performed by duplicate or triplicate. 3. Reference substrate and the present invention in the aliquot was quantified by LC/MS/MS.
Pc(cm/sec)−Permeated amount (pmol)/area of cell membrane (cm2)/initial concentration (nM)/incubation time (sec)
The efflux ratio was calculated using the following equation:
Efflux Ratio=Basolateral-to-Apical Pe/Apical-to-Basolateral Pe
The net flux was calculated using the following equation
Net flux=Efflux Ratio in MDK1 expressing cells/Efflux Ratio in parent cells

[2] = system: Aβ production in neuroblastoma SH-SY5Y cells (SH/APPwt); assay: β-amyloid (Aβ) production inhibitory effect in cell: 96-well; assay type: cell-based; conditions: Homo sapiens, Assay format 96-well
Experimental: Neuroblastoma SH-SY5V cells (SH/APPwt) with human wild-type R-APP excessively expressed therein were prepared at 8×10^5 cells/mL, and 150 μl portions thereof were inoculated into each well of a 96-well culture plate (Falcon). The cells were cultured for 2 hours at […]. in a 5% gaseous carbon dioxide incubator. […] Namely, the final DMSO concentration was 1%, and the amount of the cell culture was 200 μl. After the incubation was performed for 24 hours from the addition of the test compound, 100 μl of the culture supernatant was collected from each fraction. The amount of the Aβ in each fraction was measured. The Aβ amount was measured as follows. 10 μl of a homogeneous time resolved fluorescence (HTRF) measurement reagent (Amyloid β1-40 peptide: CIS bio international) and 10 μof the culture supernatant were put into a 384-well half area microplate (black microplate, Costar) and mixed with each other, and then left standing overnight at 4° C. while the light was shielded.

[3] = Brain distribution studies; assay type: in vivo; conditions: rat, 30 minutes later, area ratio brain/plasma; for Kp at 0.5 h: brain / plasma, iv, 0.5 mg/mL/kg
Experimental: Compound of the present invention was intravenously administered to a rat at 0.5 mg/mL/kg dosage. 30 minutes later, all blood was drawn from the abdominal aorta under isoflurane anesthesia for death from exsanguination. […] The obtained blood was used as plasma after centrifuging. The control plasma was added to the brain sample at 1:1. The control brain homogenate was added to the plasma sample at 1:1. Each sample was measured using LC/MS/MS. The obtained area ratio (a brain/plasma) was used for the brain Kp value.

CYP2D6 = target: T2, CYP2D6 (Homo sapiens, UniProt P10635); assay: CYP inhibition test (CYP2D6); assay type: in vitro ADME; conditions: pooled human liver microsomes; dextromethorphan O-demethylation
T2 construct: The commercially available pooled human liver microsomes are used as an enzyme resource; from tissue; host or cells: pooled human liver microsomes
T2 sequence (P10635 whole entry): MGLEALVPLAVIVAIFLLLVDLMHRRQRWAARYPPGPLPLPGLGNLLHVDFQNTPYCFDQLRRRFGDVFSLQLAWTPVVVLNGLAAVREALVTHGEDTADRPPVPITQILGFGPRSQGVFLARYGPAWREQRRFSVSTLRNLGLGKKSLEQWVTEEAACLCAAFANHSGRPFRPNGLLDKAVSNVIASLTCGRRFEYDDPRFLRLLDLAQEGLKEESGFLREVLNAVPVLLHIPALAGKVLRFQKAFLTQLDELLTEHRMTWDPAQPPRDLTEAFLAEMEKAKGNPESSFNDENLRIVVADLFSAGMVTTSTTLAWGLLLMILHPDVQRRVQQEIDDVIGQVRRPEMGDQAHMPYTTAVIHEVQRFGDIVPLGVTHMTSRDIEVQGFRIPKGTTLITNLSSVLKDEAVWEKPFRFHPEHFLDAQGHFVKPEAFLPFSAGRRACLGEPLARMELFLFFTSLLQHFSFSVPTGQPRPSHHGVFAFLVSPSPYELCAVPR
Summary of the method: (§1)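 Pooled human liver microsomes (0.2 mg protein/mL) were incubated at 37 °C with NADPH, compound at 1, 5, 10, 20 μmol/L and marker substrates: tolbutamide 100 μmol/L (2C9), S-mephenytoin 50 μmol/L (2C19), dextromethorphan 5 μmol/L (2D6), terfenadine 1 μmol/L (3A4). Metabolites were measured by LC/MS/MS; IC50 came from logistic fitting against DMSO control.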

CYP2C9 = target: T3, CYP2C9 (Homo sapiens, UniProt P11712); assay: CYP inhibition test (CYP2C9); assay type: in vitro ADME; conditions: pooled human liver microsomes; tolbutamide methyl-hydroxylation
T3 construct: The commercially available pooled human liver microsomes are used as an enzyme resource; from tissue; host or cells: pooled human liver microsomes
T3 sequence (P11712 whole entry): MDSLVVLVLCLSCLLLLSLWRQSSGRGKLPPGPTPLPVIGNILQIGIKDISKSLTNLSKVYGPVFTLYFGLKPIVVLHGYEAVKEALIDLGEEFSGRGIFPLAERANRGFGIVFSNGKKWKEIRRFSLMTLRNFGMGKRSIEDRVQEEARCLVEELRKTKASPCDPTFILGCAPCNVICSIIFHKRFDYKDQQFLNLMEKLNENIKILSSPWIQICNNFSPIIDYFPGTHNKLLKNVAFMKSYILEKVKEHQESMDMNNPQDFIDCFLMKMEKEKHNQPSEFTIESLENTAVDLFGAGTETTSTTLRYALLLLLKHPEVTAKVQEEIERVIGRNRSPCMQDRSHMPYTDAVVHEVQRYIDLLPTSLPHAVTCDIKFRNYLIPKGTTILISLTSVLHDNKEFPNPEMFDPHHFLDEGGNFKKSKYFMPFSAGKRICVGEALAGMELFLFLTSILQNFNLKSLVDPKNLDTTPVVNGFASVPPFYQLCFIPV
Summary of the method: as §1

Recombinant human BACE1 = target: T4, Recombinant human BACE1 (Homo sapiens, UniProt P56817); assay: Assay of BACE1 inhibitory activity: 384-well; assay type: biochemical; conditions: Assay format 384-well
T4 construct: purchased R&D Systems
T4 sequence (P56817 46-501): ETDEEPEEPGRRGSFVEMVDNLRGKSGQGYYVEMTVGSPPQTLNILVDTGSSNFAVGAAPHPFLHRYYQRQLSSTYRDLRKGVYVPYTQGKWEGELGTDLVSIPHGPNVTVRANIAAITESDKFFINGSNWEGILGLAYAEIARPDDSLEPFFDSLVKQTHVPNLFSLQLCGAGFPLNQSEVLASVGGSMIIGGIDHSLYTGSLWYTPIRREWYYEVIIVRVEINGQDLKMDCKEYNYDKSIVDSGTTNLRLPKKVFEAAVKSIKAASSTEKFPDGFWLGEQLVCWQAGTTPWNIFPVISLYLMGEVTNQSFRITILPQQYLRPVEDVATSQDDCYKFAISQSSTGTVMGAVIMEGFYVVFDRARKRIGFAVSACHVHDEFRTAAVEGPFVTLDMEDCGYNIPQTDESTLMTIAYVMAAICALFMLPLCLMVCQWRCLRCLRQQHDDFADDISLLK
Summary of the method: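 Recombinant human BACE1 was incubated 2 h at 25 °C with a biotin/Eu-cryptate-labelled peptide substrate and compound in DMSO. Streptavidin-XL665 in pH 7.0 phosphate buffer containing 0.8 mol/L KF was then added for 30 min at 25 °C for HTRF detection.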

Structure (SMILES)	ER ratio (Cell: MDR1/LLC-PK1) [1]	IC50 [2] [nM]	Kp at 0.5 h [3]	IC50 (CYP2D6) [nM]	IC50 (CYP2C9) [nM]	IC50 (Recombinant human BACE1) [nM]	Kp Brain ([3]; intravenous 0.5 mg/mL/kg)
C[C@H]1SC(N)=N[C@](C)(c2nc(NC(=O)c3ccc(C#N)cn3)ccc2F)[C@H]1F [Compound I-1]	1.2	0.504	2	≥ 20000	≥ 20000		
C[C@H]1SC(N)=N[C@](C)(c2nc(NC(=O)c3ccc(F)cn3)ccc2F)[C@H]1F [Compound I-2]		3.73	2.9		≥ 10000		
C[C@H]1SC(N)=N[C@](C)(c2nc(NC(=O)c3cnc(OCF)cn3)ccc2F)[C@H]1F [Compound I-3]		3.59	2.3		≥ 10000		
C[C@]1(c2nc(NC(=O)c3ccc(C#N)cn3)ccc2F)N=C(N)S[C@H](CF)[C@@H]1F [Compound I-4]		0.697	2	≥ 20000	≥ 10000		
C[C@@]1(c2cc(NC(=O)c3ccc(C#N)cn3)ccc2F)C[C@@](C)(C(F)(F)F)OC(N)=N1 [Compound I-7]		2.52	2				
COc1cnc(C(=O)Nc2ccc(F)c([C@@]3(C)N=C(N)S[C@H](C)[C@@H]3F)c2)cn1 [Compound I-8]	1.3	0.26	1.8				
C[C@]1(c2cc(NC(=O)c3ccc(C#N)cn3)ccc2F)N=C(N)O[C@H](CF)[C@@H]1OCC(F)(F)F [Compound I-10]	4	0.708	1.1	≥ 20000	≥ 20000		
C[C@]1(c2cc(NC(=O)c3cnc(OCF)cn3)ccc2F)N=C(N)O[C@H](CF)[C@@H]1OCC(F)(F)F [Compound I-12]		1.88	1	≥ 10000	≥ 20000		
C[C@H](F)[C@H]1OC(N)=N[C@](C)(c2cc(NC(=O)c3ccc(C#N)cn3)ccc2F)[C@H]1F [Compound I-13]	2.4	1.12	0.56	≥ 20000	≥ 20000		
C[C@@H](F)[C@H]1OC(N)=N[C@](C)(c2cc(NC(=O)c3ccc(C#N)cn3)ccc2F)[C@H]1F [Compound I-15]	2.7	0.65	0.79	≥ 20000	≥ 20000		
COc1cnc(C(=O)Nc2ccc(F)c([C@@]3(C)N=C(N)O[C@H]([C@H](C)F)[C@@H]3F)c2)cn1 [Compound I-17]	0.73	3.23			≥ 20000		
CO[C@H]1[C@@H](CF)OC(N)=N[C@]1(C)c1cc(NC(=O)c2cnc(OCF)cn2)ccc1Cl [Compound I-19]		1.2	0.51		≥ 20000		
C[C@@H]1[C@@H](C(F)(F)F)OC(N)=N[C@]1(C)c1cc(NC(=O)c2ccc(C#N)cn2)ccc1F [Compound I-27]		6.7		≥ 20000	≥ 20000		
C[C@H]1[C@@H](C(F)(F)F)OC(N)=N[C@]1(C)c1cc(NC(=O)c2ccc(C#N)cn2)ccc1F [Compound I-28]	1.2	1.5		≥ 20000	≥ 20000		
C[C@H]1[C@H](C(F)(F)F)OC(N)=N[C@]1(C)c1cc(NC(=O)c2ccc(C#N)cn2)ccc1F [Compound I-29]		93.5		≥ 20000	≥ 20000		
C[C@H]1[C@@H](C(F)(F)F)OC(N)=N[C@]1(C)c1cc(NC(=O)c2cnc(OCF)cn2)ccc1F [Compound I-30]		2.33	3.2		≥ 20000		
C[C@H]1[C@@H](C(F)F)OC(N)=N[C@]1(C)c1cc(NC(=O)c2ccc(C#N)cn2)ccc1F [Compound I-31]	2.9	0.668		≥ 20000	≥ 20000		

Structure (SMILES)	ER ratio (Cell: MDR1/LLC-PK1) [1]	IC50 [2] [nM]	Kp at 0.5 h [3]	IC50 (CYP2D6) [nM]	IC50 (CYP2C9) [nM]	IC50 (Recombinant human BACE1) [nM]	Kp Brain ([3]; intravenous 0.5 mg/mL/kg)
Cc1nc(C(=O)Nc2ccc(F)c([C@@]3(C)N=C(N)O[C@H](C(F)(F)F)[C@@H]3C)c2)co1 [Compound I-32]		2.39		≥ 10000	≥ 20000		
C[C@H]1[C@@H](C(F)F)OC(N)=N[C@]1(C)c1cc(NC(=O)c2cnc(OCF)cn2)ccc1F [Compound I-33]	3.2	1.07			≥ 20000		
C[C@]1(c2cc(NC(=O)c3ccc(C#N)cn3)ccc2F)N=C(N)O[C@H]2[C@@H]1OCC2(F)F [Compound I-35]	2.1	0.391		≥ 20000	≥ 20000		
CC(F)(F)[C@H]1OC(N)=N[C@](C)(c2cc(NC(=O)c3ccc(C#N)cn3)ccc2F)[C@H]1F [Compound I-40]	1.1		0.74	≥ 20000	≥ 20000	21.1	
C[C@H]1[C@@H](C(F)(F)F)OC(N)=N[C@]1(C)c1cc(NC(=O)c2cnc(OCF)cn2)ccc1F [Compound I-41]	1.4					14.6	1.9
COc1cnc(C(=O)Nc2ccc(F)c([C@@]3(C)N=C(N)O[C@H](C(C)(F)F)[C@@H]3F)c2)cn1 [Compound I-42]	1.5		2			14.7	
C[C@]1(c2cc(NC(=O)c3cnc(OCF)cn3)ccc2F)N=C(N)OCC12CC(F)(F)C2 [Compound I-44]	4.6	2.11		≥ 10000	≥ 20000		
C[C@]1(c2cc(NC(=O)c3ccc(F)cn3)ccc2F)N=C(N)OCC12CC(F)(F)C2 [Compound I-45]		5.71		≥ 20000	≥ 20000		
C[C@H]1SC(N)=N[C@](C)(c2cc(NC(=O)c3cnc(OCC(F)(F)F)cn3)ccc2F)[C@H]1F [Compound I-46]	1.5		1.9	≥ 10000		23.6	
C[C@H]1SC(N)=N[C@](C)(c2cc(NC(=O)c3cnc(OC(F)F)cn3)ccc2F)[C@H]1F [Compound I-47]	1.3		1.1			4.77	
C[C@H]1SC(N)=N[C@](C)(c2cc(NC(=O)c3cnc(OCC(F)F)cn3)ccc2F)[C@H]1F [Compound I-48]	1.1		2.1	≥ 10000		7.49	
Cc1cc(C#N)cnc1C(=O)Nc1ccc(F)c([C@@]2(C)N=C(N)S[C@H](C)[C@@H]2F)c1 [Compound I-52]	2.1		0.63	≥ 20000		7.62	
C[C@H]1SC(N)=N[C@](C)(c2cc(NC(=O)c3cnc(OCF)cn3)ccc2F)C12CC(F)(F)C2 [Compound I-62]	0.7		4.8		≥ 10000	7.74	
C[C@H]1SC(N)=N[C@](C)(c2cc(NC(=O)c3cnc(C(F)F)cn3)ccc2F)[C@H]1F [Compound I-65]	1.1		1.7			21.9	
COC[C@H]1SC(N)=N[C@](C)(c2cc(NC(=O)c3cnc(OCF)cn3)ccc2F)[C@H]1F [Compound I-91]	1.5		1			6.37	
C[C@H]1SC(N)=N[C@](C)(c2cc(NC(=O)c3ccc(F)cn3)ccc2F)[C@H]1F [Compound I-116]	1.1		1.8	≥ 20000		7.84	
